By IC50 is commonly meant the concentration needed to halve the response being measured.

The first test relates to IL-4 stimulated expression of CD23 in human Ramos B cells (JAK-1 and JAK-3). Put plainly: Assay for Ramos B-Cell Line Stimulated with IL-4 (CD23 upregulation, FACS). Format: cell-based. Conditions: Homo sapiens, Ramos, Ramos B cells stimulated with IL-4, CD23 expression by FACS; read-out: IC50, Example 41. A digest of the protocol: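 Human Ramos B cells in RPMI with 5% serum were pre-incubated with compound or DMSO for 1 h at 37 °C, then stimulated with IL-4 at a final 50 units/mL for 20-24 h. CD23 upregulation was measured by anti-CD23-PE staining and flow cytometry, and IC50 values were calculated.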
For `CCN(CC)S(=O)(=O)c1cc(Nc2ncc(F)c(N(C)c3ccc(Cl)c(Cl)c3)n2)ccc1OC` [VI-105, N4-(3,4-dichlorophenyl)-N4-methyl-5-fluoro-N2-[3-(N,N-diethyl)aminosulfonyl-4-methoxyphenyl]-2,4-pyrimidinediamine], the IC50 stood at 10300 nM.

Turning to `NS(=O)(=O)c1cccc(Nc2ncc(F)c(Nc3cccc(S(N)(=O)=O)c3)n2)c1` [VI-113, N2,N4-Bis-(3-aminosulfonylphenyl)-5-fluoro-2,4-pyrimidinediamine], the concentration for half-maximal inhibition (IC50) came out at 700 nM.

Regarding `NS(=O)(=O)c1cc(Nc2ncc(F)c(Nc3ccc(Cl)c(S(N)(=O)=O)c3)n2)ccc1Cl` [VI-115, N2,N4-Bis-(3-aminosulfonyl-4-chlorophenyl)-5-fluoro-2,4-pyrimidinediamine], the IC50 was determined as 890 nM.

`COC(=O)[C@@H]1C[C@@H](Nc2nc(Nc3ccc(C)c(S(N)(=O)=O)c3)ncc2F)CN1C(=O)CC#N` [VII-1, N2-(3-Aminosulfonyl-4-methylphenyl)-N4-[(2S,4R)-1-(2-cyanoacetyl)-2-methoxycarbonylpyrrolidin-4-yl]-5-fluoro-2,4-pyrimidinediamine]: the IC50 stood at 6650 nM.

As for `COC(=O)[C@@H]1C[C@H](Nc2nc(Nc3ccc(C)c(S(N)(=O)=O)c3)ncc2F)CN1C(=O)CC#N` [VII-2, N2-(3-Aminosulfonyl-4-methylphenyl)-N4-[(2S,4S)-1-(2-cyanoacetyl)-2-methoxycarbonylpyrrolidin-4-yl]-5-fluoro-2,4-pyrimidinediamine], the IC50 stood at 36200 nM.

Regarding `CN1C(=O)C(C)(C)S(=O)(=O)c2ccc(Nc3nc(Nc4cccc(S(N)(=O)=O)c4)ncc3F)cc21` [VII-11, N2-(3-Aminosulphonylphenyl)-5-fluoro-N4-(2,2,4-trimethyl-1,1,3-trioxo-benzo[1,4]thiazin-6-yl)-2,4-pyrimidinediamine], the IC50 was found to be 602 nM.

As to `Cc1ccc(Nc2ncc(F)c(Nc3ccc4c(c3)CCC(=O)N4)n2)cc1S(N)(=O)=O` [VII-21, N2-(3-Aminosulfonyl-4-methylphenyl)-N4-[3,4-dihydro-(1H)-quinolin-2-one-6-yl]-5-fluoro-2,4-pyrimidinediamine], the IC50 amounted to 548 nM.

Turning to `O=S(=O)(c1ccc(Nc2ncc(F)c(Nc3ccc4c(c3)OCCO4)n2)cc1)N1CCCC1` [VII-24, N4-(3,4-Ethylenedioxyphenyl)-5-fluoro-N2-[4-(pyrrolidin-1-ylsulfonyl)phenyl]-2,4-pyrimidinediamine], the IC50 amounted to 623 nM.

As for `CNS(=O)(=O)c1ccc(Nc2ncc(F)c(Nc3ccc4c(c3)NC(=O)C(C)(C)O4)n2)cc1OC` [VII-37, N4-(2,2-Dimethyl-3-oxo-4H-benz[1,4]oxazin-6-yl)-5-fluoro-N2-[4-(N-methyl)aminosulfonyl-3-methoxyphenyl]-2,4-pyrimidinediamine], the IC50 worked out at 28.1 nM.

For the compound `CN1C(=O)CSc2ccc(N(CC#N)c3nc(Nc4ccc(S(N)(=O)=O)cc4)ncc3F)cc21` [VII-47, N2-(4-Aminosulphonylphenyl)-N4-cyanomethyl-5-fluoro-N4-[3-oxo-4-methyl-benzo[1,4]thiazin-6-yl]-2,4-pyrimidinediamine], the half-inhibitory concentration (IC50) was 2670 nM.

In the case of `Cc1ccc(Nc2ncc(F)c(Nc3ccc4nc(O)cc(C)c4c3)n2)cc1S(N)(=O)=O` [VII-73, N2-(3-Aminosulfonyl-4-methylphenyl)-5-fluoro-N4-(2-hydroxy-4-methylquinolin-6-yl)-2,4-pyrimidinediamine], the IC50 was determined as 6090 nM.

As for `Cc1cc(O)nc2ccc(Nc3nc(Nc4cccc(S(N)(=O)=O)c4)ncc3F)cc12` [VII-74, N2-(3-Aminosulfonylphenyl)-5-fluoro-N4-(2-hydroxy-4-methylquinolin-6-yl)-2,4-pyrimidinediamine], the IC50 worked out at 4560 nM.

As for `Cc1ccc2cccc(Nc3nc(Nc4ccc(C)c(S(N)(=O)=O)c4)ncc3F)c2n1` [VII-80, N2-(3-Aminosulfonyl-4-methylphenyl)-5-fluoro-N4-(2-methylquinolin-8-yl)-2,4-pyrimidinediamine], the IC50 is 2030 nM.

With `Cc1ccc2cccc(Nc3nc(Nc4cccc(S(N)(=O)=O)c4)ncc3F)c2n1` [VII-81, N2-(3-Aminosulfonylphenyl)-5-fluoro-N4-(2-methylquinolin-8-yl)-2,4-pyrimidinediamine], the IC50 came to 3070 nM.

The same test, now with this note: Ramos B cells stimulated with IL-4, CD23 expression by FACS; read-out: IC50, Example 41.
As for `CNS(=O)(=O)c1ccc(Nc2ncc(F)c(Nc3ccc4c(c3)OCCO4)n2)cc1OC` [VII-25, N4-(3,4-Ethyenedioxyphenyl)-5-fluoro-N2-[4-(N-methyl)aminosulfonyl-3-methoxyphenyl]-2,4-pyrimidinediamine], the IC50 is 217 nM.

For `CN1C(=O)C(C)(C)Oc2ccc(Nc3nc(Nc4ccc(S(N)(=O)=O)cc4)ncc3F)nc21` [VII-43, N2-(4-Aminosulfonylphenyl)-N4-[2,2,4-trimethyl-3-oxo-5-pyrid[1,4]oxazin-5-yl]-5-fluoro-2,4-pyrimidinediamine], the IC50 turned out to be 603 nM.

`CN1C(=O)C(C)(C)S(=O)(=O)c2ccc(Nc3nc(Nc4ccc(S(N)(=O)=O)cc4)ncc3F)cc21` [VII-46, N2-(4-Aminosulphonylphenyl)-5-fluoro-N4-(2,2,4-trimethyl-1,1,3-trioxo-benzo[1,4]thiazin-6-yl)-2,4-pyrimidinediamine]: the IC50 was 961 nM.

As to `CC1(C)Oc2cc(Nc3nc(Nc4ccc(S(N)(=O)=O)cc4)ncc3F)cnc2NC1=O` [VII-52, N2-(4-Aminosulfonylphenyl)-N4-[2,2-dimethyl-3-oxo-4H-5-pyrid[1,4]oxazin-7-yl]-5-fluoro-2,4-pyrimidinediamine], the IC50 stood at 47100 nM.

With `Cc1ccc(Nc2ncc(F)c(Nc3ccc4nc(N(C)C)ccc4c3)n2)cc1S(N)(=O)=O` [VII-75, N2-(3-Aminosulfonyl-4-methylphenyl)-N4-(2-N,N′-dimethylamine-quinolin-6-yl)-5-fluoro-2,4-pyrimidinediamine], the IC50 stood at 544 nM.

On to `CN(C)c1ccc2cc(Nc3nc(Nc4cccc(S(N)(=O)=O)c4)ncc3F)ccc2n1` [VII-76, N2-(3-Aminosulfonylphenyl)-N4-(2-N,N′-dimethylamine-quinolin-6-yl)-5-fluoro-2,4-pyrimidinediamine], for which the IC50 came out at 673 nM.

Turning to `Cc1cc(COc2ccc(Nc3nc(Nc4ccc5c(c4)S(=O)(=O)NC5=O)ncc3F)cc2)no1` [VIII-1, 5-Fluoro-N4-[4-(5-methylisoxazol-3-yl)methyleneoxyphenyl]-N2-(sacchrin-6-yl)-2,4-pyrimidinediamine], the IC50 worked out at 1590 nM.

Take “N2-(3-aminosulfonyl-4-methyl)phenyl-5-fluoro-N4-(4-thiomethylcarbonyl)phenyl-2,4-pyrimidinediamine [VI-95]”: the IC50 came to 1000 nM.

For “N2-(4-aminosulfonyl)phenyl-5-fluoro-N4-(4-thiomethylcarbonyl)phenyl-2,4-pyrimidinediamine [VI-94]”, the 50% inhibitory concentration (IC50) came to 944 nM.

In the case of “N4-(2-Amino-3-methoxypyrid-6-yl)-N2-[3-(ethoxycarbonylmethylene)aminosulfonylphenyl)-5-fluoro-2,4-pyrimidinediamine [VII-10]”, the IC50 stood at 863 nM.

Staying with this test, now noted: Ramos B-cell line stimulated with IL-4; CD23 expression by FACS; read-out: IC50, Example 41.
With “N2-(3-Aminocarbonyl-5-methylphenyl)-5-fluoro-N2-[4-(1-methylpyrazol-3-yl)amidophenyl)-2,4-pyrimidinediamine [II-19]”, the IC50 was found to be 395 nM.

(Values after patent US11827628B2, “Compositions and methods for inhibition of the JAK pathway” (Rigel Pharmaceuticals, Inc., priority 2005, dated 2023).)
